Reference: PMC4685510, “A Cell Biologist’s Field Guide to Aurora Kinase Inhibitors” (Frontiers in Oncology, 2015)

Experiments:
Assay in all cases: biochemical
Type in all cases: biochemical
[1] = molecular target: 363 human kinases (including Aurora A/B/C) (Homo sapiens, UniProt Q13153); conditions: PAK1; for remaining activity at 0.1 µM: 100 nM; for remaining activity at 0.1 µM / remaining activity at 0.5 µM: read-out: % Enzyme Activity (relative to DMSO controls)
From the text: (§1) However, the Aurora A/B selectivity ratios derived from our in vitro and in vivo data can be compared to prioritize inhibitors.

[2] = molecular target: 363 human kinases (including Aurora A/B/C) (Homo sapiens, UniProt P24723); conditions: PKCeta; for remaining activity at 0.1 µM: 100 nM; for remaining activity at 0.1 µM / remaining activity at 0.5 µM: read-out: % Enzyme Activity (relative to DMSO controls)
From the text: as §1

[3] = molecular target: 363 human kinases (including Aurora A/B/C) (Homo sapiens, UniProt Q9Y6E0); conditions: MST3/STK24; for remaining activity at 0.1 µM: 100 nM; for remaining activity at 0.1 µM / remaining activity at 0.5 µM: read-out: % Enzyme Activity (relative to DMSO controls)
From the text: as §1

[4] = molecular target: 363 human kinases (including Aurora A/B/C) (Homo sapiens, UniProt O15075); conditions: DCAMKL1, [ATP] 50 µM; for remaining activity at 0.1 µM: 100 nM; for remaining activity at 0.1 µM / remaining activity at 0.5 µM: read-out: % Enzyme Activity (relative to DMSO controls)
From the text: as §1

[5] = molecular target: 363 human kinases (including Aurora A/B/C) (Homo sapiens, UniProt Q9UQM7); conditions: CAMK2a, [ATP] 100 µM; for remaining activity at 0.1 µM: 100 nM; for remaining activity at 0.1 µM / remaining activity at 0.5 µM: read-out: % Enzyme Activity (relative to DMSO controls)
From the text: as §1

[6] = molecular target: 363 human kinases (including Aurora A/B/C) (Homo sapiens, UniProt O00238); conditions: ALK6/BMPR1B, [ATP] 10 µM; for remaining activity at 0.1 µM: 100 nM; for remaining activity at 0.1 µM / remaining activity at 0.5 µM: read-out: % Enzyme Activity (relative to DMSO controls)
From the text: as §1

[7] = molecular target: 363 human kinases (including Aurora A/B/C) (Homo sapiens, UniProt P08631); conditions: HCK; for remaining activity at 0.1 µM: 100 nM; for remaining activity at 0.1 µM / remaining activity at 0.5 µM: read-out: % Enzyme Activity (relative to DMSO controls)
From the text: as §1

[8] = molecular target: T1, 363 human kinases (including Aurora A/B/C) (Homo sapiens, UniProt P42679); conditions: CTK/MATK, [ATP] 100 µM; for remaining activity at 0.1 µM: 100 nM; for remaining activity at 0.1 µM / remaining activity at 0.5 µM: read-out: % Enzyme Activity (relative to DMSO controls)
T1 sequence (P42679 1-507): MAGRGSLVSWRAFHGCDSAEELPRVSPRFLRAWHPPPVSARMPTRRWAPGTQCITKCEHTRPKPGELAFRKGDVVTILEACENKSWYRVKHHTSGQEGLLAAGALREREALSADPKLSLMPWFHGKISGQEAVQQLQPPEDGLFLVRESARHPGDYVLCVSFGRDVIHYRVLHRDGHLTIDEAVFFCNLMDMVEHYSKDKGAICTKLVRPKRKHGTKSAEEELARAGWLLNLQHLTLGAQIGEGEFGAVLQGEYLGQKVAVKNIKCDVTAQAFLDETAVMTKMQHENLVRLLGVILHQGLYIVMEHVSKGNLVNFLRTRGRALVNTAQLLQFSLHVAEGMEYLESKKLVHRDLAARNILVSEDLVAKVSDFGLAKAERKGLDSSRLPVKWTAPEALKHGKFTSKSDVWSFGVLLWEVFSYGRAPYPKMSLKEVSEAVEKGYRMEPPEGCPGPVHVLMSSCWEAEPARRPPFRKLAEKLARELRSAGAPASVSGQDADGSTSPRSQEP
From the text: as §1

[9] = molecular target: T2, 363 human kinases (including Aurora A/B/C) (Homo sapiens, UniProt Q9BZL6); conditions: PKD2/PRKD2; for remaining activity at 0.1 µM: 100 nM; for remaining activity at 0.1 µM / remaining activity at 0.5 µM: read-out: % Enzyme Activity (relative to DMSO controls)
T2 sequence (Q9BZL6 1-878): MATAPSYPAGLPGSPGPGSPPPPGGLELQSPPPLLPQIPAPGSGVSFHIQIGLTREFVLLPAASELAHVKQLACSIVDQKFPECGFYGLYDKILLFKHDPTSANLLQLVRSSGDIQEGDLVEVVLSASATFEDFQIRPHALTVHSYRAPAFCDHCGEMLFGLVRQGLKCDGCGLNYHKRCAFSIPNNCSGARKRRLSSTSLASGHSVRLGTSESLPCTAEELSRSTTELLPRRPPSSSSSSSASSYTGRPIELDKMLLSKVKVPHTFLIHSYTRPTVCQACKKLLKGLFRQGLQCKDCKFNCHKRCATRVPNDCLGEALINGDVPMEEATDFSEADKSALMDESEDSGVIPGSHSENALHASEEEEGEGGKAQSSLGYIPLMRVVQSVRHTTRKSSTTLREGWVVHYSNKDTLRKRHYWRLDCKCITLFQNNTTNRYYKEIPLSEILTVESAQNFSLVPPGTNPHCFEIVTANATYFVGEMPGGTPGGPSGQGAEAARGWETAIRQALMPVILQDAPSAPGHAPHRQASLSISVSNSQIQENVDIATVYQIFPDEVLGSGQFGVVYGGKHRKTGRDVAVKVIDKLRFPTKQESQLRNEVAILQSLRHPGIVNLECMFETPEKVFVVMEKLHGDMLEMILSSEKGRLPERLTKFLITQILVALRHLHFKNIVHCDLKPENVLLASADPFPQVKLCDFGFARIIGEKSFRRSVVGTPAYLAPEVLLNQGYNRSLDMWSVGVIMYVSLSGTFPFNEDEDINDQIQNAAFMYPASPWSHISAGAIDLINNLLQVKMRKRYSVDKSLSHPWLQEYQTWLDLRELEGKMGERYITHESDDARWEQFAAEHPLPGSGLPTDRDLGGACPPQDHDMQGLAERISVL
From the text: as §1

363 human kinases (including Aurora A/B/C) (Homo sapiens, UniProt O15075), sequence (O15075 whole entry): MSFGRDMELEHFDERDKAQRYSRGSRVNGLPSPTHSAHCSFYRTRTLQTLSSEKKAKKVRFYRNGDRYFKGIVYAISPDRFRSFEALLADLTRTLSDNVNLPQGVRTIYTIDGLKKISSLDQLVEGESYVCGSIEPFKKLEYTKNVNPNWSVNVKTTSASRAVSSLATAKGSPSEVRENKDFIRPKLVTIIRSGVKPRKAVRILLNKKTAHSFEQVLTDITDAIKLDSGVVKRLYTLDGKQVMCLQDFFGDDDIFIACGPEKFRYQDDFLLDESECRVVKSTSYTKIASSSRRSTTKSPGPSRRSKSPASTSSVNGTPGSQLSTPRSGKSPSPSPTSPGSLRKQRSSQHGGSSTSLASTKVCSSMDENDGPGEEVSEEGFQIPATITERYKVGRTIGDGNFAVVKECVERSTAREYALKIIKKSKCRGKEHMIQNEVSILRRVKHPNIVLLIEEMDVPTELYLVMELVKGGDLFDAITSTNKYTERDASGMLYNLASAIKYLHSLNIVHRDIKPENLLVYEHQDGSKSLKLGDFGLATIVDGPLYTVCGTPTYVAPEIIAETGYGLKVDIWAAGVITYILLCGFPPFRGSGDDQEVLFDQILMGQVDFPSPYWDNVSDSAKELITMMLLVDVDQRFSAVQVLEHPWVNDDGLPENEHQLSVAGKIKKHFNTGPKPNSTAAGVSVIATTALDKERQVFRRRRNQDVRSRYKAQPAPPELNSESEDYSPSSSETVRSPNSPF
363 human kinases (including Aurora A/B/C) (Homo sapiens, UniProt Q9UQM7), sequence (Q9UQM7 whole entry): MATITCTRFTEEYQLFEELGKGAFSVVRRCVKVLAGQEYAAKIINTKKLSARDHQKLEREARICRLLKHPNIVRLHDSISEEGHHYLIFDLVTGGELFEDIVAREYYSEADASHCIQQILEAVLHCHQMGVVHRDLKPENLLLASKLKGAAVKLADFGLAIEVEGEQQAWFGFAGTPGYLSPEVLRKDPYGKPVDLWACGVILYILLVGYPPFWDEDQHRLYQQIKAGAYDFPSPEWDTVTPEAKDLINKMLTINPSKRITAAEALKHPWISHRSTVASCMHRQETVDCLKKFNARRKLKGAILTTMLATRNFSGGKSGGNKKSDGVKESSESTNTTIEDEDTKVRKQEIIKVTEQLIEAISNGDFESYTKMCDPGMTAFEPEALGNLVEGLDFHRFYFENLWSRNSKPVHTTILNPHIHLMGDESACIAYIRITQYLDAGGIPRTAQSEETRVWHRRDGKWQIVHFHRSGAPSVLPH
363 human kinases (including Aurora A/B/C) (Homo sapiens, UniProt Q13153), sequence (Q13153 whole entry): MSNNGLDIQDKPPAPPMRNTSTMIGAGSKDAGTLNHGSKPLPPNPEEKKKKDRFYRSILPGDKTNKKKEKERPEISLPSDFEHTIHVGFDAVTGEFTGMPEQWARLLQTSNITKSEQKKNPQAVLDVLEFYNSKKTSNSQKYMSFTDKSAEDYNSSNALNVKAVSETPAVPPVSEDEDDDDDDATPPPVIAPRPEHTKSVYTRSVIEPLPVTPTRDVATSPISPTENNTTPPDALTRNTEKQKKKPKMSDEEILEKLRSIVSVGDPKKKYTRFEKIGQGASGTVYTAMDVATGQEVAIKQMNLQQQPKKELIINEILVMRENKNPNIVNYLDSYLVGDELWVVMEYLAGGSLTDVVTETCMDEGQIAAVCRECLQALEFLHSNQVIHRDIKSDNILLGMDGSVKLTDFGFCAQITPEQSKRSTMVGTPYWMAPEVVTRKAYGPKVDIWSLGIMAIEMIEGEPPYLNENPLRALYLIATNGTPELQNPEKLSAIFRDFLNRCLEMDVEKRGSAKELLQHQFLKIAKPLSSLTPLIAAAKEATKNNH
363 human kinases (including Aurora A/B/C) (Homo sapiens, UniProt O00238), sequence (O00238 14-502): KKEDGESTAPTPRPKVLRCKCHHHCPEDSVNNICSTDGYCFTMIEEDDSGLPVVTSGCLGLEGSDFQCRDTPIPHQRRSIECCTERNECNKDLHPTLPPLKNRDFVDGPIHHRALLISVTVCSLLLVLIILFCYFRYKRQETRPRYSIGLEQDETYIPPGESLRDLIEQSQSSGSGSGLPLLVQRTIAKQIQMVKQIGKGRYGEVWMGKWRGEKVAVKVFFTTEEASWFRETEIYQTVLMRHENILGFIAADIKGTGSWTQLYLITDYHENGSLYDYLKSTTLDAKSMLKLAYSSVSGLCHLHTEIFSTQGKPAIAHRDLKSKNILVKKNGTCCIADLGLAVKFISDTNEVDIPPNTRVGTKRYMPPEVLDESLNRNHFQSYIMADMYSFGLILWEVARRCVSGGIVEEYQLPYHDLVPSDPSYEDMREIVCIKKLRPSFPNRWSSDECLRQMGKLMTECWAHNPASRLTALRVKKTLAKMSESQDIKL
363 human kinases (including Aurora A/B/C) (Homo sapiens, UniProt P24723), sequence (P24723 whole entry): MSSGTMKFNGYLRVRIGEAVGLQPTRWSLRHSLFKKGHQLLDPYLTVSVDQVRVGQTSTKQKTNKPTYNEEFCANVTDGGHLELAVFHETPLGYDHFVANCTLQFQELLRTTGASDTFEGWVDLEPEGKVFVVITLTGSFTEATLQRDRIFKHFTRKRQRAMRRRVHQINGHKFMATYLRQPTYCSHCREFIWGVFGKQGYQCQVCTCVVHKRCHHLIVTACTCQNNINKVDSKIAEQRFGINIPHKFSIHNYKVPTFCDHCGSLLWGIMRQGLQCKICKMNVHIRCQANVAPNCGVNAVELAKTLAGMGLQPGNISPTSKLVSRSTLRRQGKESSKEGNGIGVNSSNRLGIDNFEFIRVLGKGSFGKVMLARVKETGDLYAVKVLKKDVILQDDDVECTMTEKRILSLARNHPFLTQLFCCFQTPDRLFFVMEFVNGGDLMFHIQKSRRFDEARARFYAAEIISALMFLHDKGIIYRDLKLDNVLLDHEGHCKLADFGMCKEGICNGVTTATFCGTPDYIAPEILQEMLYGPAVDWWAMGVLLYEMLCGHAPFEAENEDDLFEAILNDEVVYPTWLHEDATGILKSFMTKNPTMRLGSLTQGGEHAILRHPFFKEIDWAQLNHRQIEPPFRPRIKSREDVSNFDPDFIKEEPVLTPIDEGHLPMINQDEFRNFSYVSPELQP
363 human kinases (including Aurora A/B/C) (Homo sapiens, UniProt Q9Y6E0), sequence (Q9Y6E0 whole entry): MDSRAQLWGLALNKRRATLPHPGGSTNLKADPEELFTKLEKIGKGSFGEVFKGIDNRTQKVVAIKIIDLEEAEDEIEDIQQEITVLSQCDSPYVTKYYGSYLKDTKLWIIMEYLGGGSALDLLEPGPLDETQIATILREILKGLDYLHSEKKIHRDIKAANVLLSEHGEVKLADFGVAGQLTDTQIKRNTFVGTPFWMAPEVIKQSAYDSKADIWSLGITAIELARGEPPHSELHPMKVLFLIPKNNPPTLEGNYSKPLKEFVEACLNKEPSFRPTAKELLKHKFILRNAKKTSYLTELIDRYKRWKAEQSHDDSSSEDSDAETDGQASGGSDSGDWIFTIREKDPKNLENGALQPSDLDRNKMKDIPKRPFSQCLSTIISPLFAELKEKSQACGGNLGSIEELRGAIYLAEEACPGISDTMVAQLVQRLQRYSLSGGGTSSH
363 human kinases (including Aurora A/B/C) (Homo sapiens, UniProt P08631), sequence (P08631 whole entry): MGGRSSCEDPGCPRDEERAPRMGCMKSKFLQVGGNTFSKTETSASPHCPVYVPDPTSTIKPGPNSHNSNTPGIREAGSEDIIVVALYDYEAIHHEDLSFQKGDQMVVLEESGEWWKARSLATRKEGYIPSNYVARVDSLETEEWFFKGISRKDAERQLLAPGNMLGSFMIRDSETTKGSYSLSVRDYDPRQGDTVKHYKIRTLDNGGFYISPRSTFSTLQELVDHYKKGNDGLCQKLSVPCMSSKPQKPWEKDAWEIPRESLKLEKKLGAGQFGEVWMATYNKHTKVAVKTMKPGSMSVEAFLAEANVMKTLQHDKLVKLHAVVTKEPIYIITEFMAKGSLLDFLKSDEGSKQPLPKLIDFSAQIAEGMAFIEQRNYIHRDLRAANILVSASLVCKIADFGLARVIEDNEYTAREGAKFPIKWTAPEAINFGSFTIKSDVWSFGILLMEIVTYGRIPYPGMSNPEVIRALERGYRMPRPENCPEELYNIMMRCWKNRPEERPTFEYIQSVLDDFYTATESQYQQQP

SMILES: CCn1cc(-c2ccnc3[nH]c(-c4cccc(CN(C)C)c4)cc23)c(-c2ccc(NC(=O)N(C)C)cc2)n1 [GSK1070916]
- remaining activity at 0.1 µM [1]: 81.9%
- remaining activity at 0.1 µM [2]: 103%
- remaining activity at 0.1 µM [3]: 85.4%
- remaining activity at 0.1 µM [4]: 114%
- remaining activity at 0.1 µM [5]: 102%
- remaining activity at 0.1 µM [6]: 89.2%
- remaining activity at 0.1 µM [7]: 102%
- remaining activity at 0.1 µM [8]: 82.4%
- remaining activity at 0.1 µM [9]: 93.3%

SMILES: O=C(c1cccc(Cl)c1F)N1CCN(Cc2cccc(Nc3nccs3)n2)CC1 [MK-8745]
- % Enzyme Activity (relative to DMSO controls) ([1]; 500 nM): 85.62%
- remaining activity at 0.5 µM ([1]; 500 nM): 87.5%
- % Enzyme Activity (relative to DMSO controls) ([2]; 500 nM): 164.83%
- remaining activity at 0.5 µM ([2]; 500 nM): 166%
- % Enzyme Activity (relative to DMSO controls) ([3]; 500 nM): 84.91%
- remaining activity at 0.5 µM ([3]; 500 nM): 85.3%
- % Enzyme Activity (relative to DMSO controls) ([4]; 500 nM): 138.94%
- remaining activity at 0.5 µM ([4]; 500 nM): 142%
- % Enzyme Activity (relative to DMSO controls) ([5]; 500 nM): 101.40%
- remaining activity at 0.5 µM ([5]; 500 nM): 104%
- % Enzyme Activity (relative to DMSO controls) ([6]; 500 nM): 91.78%
- remaining activity at 0.5 µM ([6]; 500 nM): 92%
- % Enzyme Activity (relative to DMSO controls) ([7]; 500 nM): 52.42%
- remaining activity at 0.5 µM ([7]; 500 nM): 53.9%
- % Enzyme Activity (relative to DMSO controls) ([8]; 500 nM): 86.22%
- remaining activity at 0.5 µM ([8]; 500 nM): 86.8%
- % Enzyme Activity (relative to DMSO controls) ([9]; 500 nM): 96.92%
- remaining activity at 0.5 µM ([9]; 500 nM): 98.1%

SMILES: O=C(O)[C@]1(Cc2cccc(Nc3nccs3)n2)CC[C@@H](Oc2cccc(Cl)c2F)CC1 [MK-5108]
- remaining activity at 0.1 µM [1]: 93.7%
- remaining activity at 0.5 µM ([1]; 500 nM): 81.2%
- remaining activity at 0.1 µM [2]: 134%
- remaining activity at 0.5 µM ([2]; 500 nM): 115%
- remaining activity at 0.1 µM [3]: 102%
- remaining activity at 0.5 µM ([3]; 500 nM): 87.9%
- remaining activity at 0.1 µM [4]: 108%
- remaining activity at 0.5 µM ([4]; 500 nM): 131%
- remaining activity at 0.1 µM [5]: 95.4%
- remaining activity at 0.5 µM ([5]; 500 nM): 101%
- remaining activity at 0.1 µM [6]: 101%
- remaining activity at 0.5 µM ([6]; 500 nM): 46.2%
- remaining activity at 0.1 µM [7]: 46.1%
- remaining activity at 0.5 µM ([7]; 500 nM): 20.2%
- remaining activity at 0.1 µM [8]: 103%
- remaining activity at 0.5 µM ([8]; 500 nM): 129%
- remaining activity at 0.1 µM [9]: 98.5%
- remaining activity at 0.5 µM ([9]; 500 nM): 101%
